Test results taken from ChEMBL document CHEMBL4052791, “GNE-886: A Potent and Selective Inhibitor of the Cat Eye Syndrome Chromosome Region Candidate 2 Bromodomain (CECR2)” (ACS Med Chem Lett, 2017).
In brackets after ≈: the same amount, converted by molar mass.

Tests used:
[1] = target: T1, Chromatin remodeling regulator CECR2 (Homo sapiens, UniProt Q9BXF3); experiment: Inhibition of recombinant human N-terminal His6-FLAG-tagged CECR2 expressed in Rosetta2 (DE3) pLysS cells after 60 mins by TR-FRET assay; assay type: cell-based
[2] = target: T2, Bromodomain-containing protein 9 (Homo sapiens, UniProt Q9H8M2); experiment: Inhibition of recombinant human N-terminal His6-FLAG-tagged BRD9 (unknown origin) expressed in Rosetta2 (DE3) pLysS cells after 60 mins by TR-FRET assay; assay type: cell-based
T2 sequence (Q9H8M2 whole entry): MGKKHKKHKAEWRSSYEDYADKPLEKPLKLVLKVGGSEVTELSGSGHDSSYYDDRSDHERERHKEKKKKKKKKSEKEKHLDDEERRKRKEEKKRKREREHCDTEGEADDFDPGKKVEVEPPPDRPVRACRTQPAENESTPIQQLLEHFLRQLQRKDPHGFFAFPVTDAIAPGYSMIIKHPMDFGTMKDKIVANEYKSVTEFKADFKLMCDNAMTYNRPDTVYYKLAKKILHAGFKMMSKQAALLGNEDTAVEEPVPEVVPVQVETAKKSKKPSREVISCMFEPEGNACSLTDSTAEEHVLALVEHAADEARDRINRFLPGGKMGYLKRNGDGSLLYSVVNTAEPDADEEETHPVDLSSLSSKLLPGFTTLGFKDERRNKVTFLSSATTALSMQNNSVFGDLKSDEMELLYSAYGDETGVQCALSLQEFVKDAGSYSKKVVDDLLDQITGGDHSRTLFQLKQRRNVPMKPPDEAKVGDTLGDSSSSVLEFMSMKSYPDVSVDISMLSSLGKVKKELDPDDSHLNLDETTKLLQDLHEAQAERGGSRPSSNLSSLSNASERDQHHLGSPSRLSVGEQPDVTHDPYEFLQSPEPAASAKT

[3] = target: T3, Bromodomain-containing protein 4 (Homo sapiens, UniProt O60885); experiment: Inhibition of recombinant human N-terminal His6-FLAG-tagged BRD4 bromodomain 1 expressed in Rosetta2 (DE3) pLysS cells after 60 mins by TR-FRET assay; assay type: cell-based
[4] = target: T4, Transcription initiation factor TFIID subunit 1 (Homo sapiens, UniProt P21675); experiment: Inhibition of recombinant human N-terminal His6-FLAG-tagged TAF1 bromodomain 2 (unknown origin) expressed in Rosetta2 (DE3) pLysS cells after 60 mins by TR-FRET assay; assay type: cell-based
[5] = target: T3, Bromodomain-containing protein 4; experiment: Inhibition of recombinant human N-terminal His6-FLAG-tagged BRD4 bromodomain 2 (unknown origin) expressed in Rosetta2 (DE3) pLysS cells after 60 mins by TR-FRET assay; assay type: cell-based
[6] = target: Transcription initiation factor TFIID subunit 1-like (Homo sapiens, UniProt Q8IZX4); experiment: Binding affinity to human DNA-tagged TAF1L bromodomain 2 (1523 to 1654 residues) expressed in bacterial expression system by BROMOscan assay
[7] = Kinetic solubility of the compound; assay type: physicochemical; details: read-out: Kinetic_solubility
[8] = target: T5, Bromodomain-containing protein 7 (Homo sapiens, UniProt Q9NPI1); experiment: Binding affinity to human DNA-tagged BRD7 (125 to 254 residues) expressed in mammalian expression system by BROMOscan assay
T5 sequence (Q9NPI1 whole entry): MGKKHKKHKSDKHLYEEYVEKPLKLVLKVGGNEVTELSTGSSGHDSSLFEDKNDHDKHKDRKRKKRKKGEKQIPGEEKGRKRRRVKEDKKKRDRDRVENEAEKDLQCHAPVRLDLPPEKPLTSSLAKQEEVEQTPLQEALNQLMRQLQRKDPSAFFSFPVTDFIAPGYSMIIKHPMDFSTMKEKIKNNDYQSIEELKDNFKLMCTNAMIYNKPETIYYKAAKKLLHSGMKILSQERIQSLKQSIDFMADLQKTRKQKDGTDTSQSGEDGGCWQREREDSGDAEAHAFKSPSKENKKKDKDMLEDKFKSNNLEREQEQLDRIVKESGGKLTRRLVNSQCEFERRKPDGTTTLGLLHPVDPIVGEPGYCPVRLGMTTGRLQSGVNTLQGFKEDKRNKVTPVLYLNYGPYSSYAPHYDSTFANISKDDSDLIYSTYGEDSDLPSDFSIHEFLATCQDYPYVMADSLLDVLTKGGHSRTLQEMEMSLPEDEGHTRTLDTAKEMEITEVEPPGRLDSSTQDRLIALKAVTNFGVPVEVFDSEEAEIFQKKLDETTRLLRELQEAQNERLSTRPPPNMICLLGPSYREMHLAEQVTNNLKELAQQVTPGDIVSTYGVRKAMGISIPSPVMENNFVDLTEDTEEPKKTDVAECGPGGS

[9] = target: T4, Transcription initiation factor TFIID subunit 1; experiment: Binding affinity to human DNA-tagged TAF1 bromodomain 2 (1521 to 1656 residues) expressed in bacterial expression system by BROMOscan assay
[10] = target: T1, Chromatin remodeling regulator CECR2; experiment: Binding affinity to ZsGreen fused-CECR2 bromodomain (M404 to H515 residues) (unknown origin) expressed in human U2OS-C433 cells co expressing (MDPKKKRKVDPKKRKVDPKKKRKV) assessed as induction of protein bromodomain localization from chromatin by measuring formation of large nuclear puncta by fluorescence based assay; assay type: cell-based
[11] = target: T2, Bromodomain-containing protein 9; experiment: Binding affinity to human DNA-tagged BRD9 isoform 1 (130 to 259 residues) expressed in bacterial expression system by BROMOscan assay

T1 sequence (Q9BXF3 whole entry): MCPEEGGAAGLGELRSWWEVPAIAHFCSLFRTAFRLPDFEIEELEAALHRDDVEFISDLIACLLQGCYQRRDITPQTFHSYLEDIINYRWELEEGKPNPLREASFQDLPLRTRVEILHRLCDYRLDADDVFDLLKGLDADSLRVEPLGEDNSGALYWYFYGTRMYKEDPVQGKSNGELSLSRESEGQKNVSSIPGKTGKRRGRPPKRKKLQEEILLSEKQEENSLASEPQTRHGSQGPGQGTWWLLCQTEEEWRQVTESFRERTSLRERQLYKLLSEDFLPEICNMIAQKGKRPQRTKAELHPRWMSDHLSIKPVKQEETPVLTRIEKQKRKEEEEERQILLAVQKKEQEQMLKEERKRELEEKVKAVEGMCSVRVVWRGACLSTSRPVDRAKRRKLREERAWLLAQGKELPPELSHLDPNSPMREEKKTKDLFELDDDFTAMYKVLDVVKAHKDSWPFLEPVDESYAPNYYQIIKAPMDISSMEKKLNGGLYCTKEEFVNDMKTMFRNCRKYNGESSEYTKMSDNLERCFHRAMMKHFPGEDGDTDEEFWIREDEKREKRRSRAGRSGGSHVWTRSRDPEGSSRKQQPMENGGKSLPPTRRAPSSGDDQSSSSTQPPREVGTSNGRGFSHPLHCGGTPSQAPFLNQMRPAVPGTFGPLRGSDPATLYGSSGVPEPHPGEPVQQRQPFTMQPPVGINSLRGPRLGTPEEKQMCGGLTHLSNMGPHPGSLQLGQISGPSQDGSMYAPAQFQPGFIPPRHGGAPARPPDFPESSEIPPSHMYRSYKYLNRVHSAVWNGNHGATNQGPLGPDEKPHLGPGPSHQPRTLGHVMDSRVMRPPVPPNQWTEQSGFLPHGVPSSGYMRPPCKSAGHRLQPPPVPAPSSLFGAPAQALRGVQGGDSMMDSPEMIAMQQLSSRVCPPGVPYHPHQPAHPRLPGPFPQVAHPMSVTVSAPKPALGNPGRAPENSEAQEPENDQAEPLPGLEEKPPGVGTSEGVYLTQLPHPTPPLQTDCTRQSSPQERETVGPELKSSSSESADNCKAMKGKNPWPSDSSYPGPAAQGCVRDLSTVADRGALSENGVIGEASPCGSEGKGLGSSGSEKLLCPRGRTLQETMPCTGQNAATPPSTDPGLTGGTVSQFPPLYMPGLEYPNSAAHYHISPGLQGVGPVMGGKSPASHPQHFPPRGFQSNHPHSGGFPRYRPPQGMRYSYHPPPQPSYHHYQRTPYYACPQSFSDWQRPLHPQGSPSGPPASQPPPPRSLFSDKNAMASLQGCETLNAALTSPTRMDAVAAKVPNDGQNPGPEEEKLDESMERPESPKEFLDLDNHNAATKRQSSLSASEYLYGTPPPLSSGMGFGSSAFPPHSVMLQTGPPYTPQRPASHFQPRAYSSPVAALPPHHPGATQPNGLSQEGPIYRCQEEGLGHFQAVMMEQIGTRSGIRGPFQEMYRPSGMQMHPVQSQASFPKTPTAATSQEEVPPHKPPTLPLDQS
T4 sequence (P21675 whole entry): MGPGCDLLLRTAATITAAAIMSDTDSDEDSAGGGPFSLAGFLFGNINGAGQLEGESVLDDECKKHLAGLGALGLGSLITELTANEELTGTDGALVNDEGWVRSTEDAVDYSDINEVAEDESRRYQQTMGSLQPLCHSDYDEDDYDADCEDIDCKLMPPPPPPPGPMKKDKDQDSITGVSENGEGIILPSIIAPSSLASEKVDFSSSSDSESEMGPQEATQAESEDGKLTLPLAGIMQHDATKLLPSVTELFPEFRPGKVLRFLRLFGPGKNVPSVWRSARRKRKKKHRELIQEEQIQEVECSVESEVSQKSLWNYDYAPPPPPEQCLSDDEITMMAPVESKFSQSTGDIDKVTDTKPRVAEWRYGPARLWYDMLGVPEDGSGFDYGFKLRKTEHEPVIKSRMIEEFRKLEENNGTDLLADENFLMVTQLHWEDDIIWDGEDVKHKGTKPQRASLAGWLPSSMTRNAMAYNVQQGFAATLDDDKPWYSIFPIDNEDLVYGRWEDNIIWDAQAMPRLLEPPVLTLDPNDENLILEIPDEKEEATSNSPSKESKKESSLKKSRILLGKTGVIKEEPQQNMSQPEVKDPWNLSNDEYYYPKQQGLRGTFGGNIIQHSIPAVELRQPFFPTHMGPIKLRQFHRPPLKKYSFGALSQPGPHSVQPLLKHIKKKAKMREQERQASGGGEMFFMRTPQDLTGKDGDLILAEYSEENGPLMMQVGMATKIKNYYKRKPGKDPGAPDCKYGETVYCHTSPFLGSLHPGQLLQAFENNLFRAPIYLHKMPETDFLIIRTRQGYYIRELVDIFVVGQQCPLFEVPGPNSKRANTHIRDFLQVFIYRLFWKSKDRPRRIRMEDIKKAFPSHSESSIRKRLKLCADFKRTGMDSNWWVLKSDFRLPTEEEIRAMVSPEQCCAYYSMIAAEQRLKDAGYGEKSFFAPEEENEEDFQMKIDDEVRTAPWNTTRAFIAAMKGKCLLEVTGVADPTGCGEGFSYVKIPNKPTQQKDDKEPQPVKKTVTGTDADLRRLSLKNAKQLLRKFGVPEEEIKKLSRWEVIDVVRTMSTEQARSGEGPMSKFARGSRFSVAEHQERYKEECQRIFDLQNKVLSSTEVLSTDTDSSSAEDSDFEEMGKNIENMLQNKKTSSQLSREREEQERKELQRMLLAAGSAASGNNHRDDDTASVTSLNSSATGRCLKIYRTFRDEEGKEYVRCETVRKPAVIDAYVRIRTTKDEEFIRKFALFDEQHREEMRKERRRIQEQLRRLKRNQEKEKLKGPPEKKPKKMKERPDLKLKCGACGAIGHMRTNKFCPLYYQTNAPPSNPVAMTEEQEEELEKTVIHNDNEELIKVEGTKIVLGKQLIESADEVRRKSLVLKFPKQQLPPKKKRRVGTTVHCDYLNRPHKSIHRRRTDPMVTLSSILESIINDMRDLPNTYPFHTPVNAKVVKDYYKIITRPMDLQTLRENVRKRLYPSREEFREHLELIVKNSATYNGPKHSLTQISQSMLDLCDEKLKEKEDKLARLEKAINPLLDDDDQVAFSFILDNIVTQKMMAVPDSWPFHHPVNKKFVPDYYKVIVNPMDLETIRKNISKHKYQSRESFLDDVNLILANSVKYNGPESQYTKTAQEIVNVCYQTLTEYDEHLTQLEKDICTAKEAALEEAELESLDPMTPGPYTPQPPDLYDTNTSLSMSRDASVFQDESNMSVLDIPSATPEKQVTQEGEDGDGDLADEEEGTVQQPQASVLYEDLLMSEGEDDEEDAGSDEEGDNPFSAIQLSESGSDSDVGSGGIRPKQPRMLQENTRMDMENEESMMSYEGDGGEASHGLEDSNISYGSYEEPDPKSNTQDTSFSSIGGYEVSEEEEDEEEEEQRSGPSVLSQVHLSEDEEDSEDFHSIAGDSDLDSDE

Compound	IC50 [1] [nM]	IC50 [2] [nM]	IC50 [3] [nM]	IC50 [4] [nM]	IC50 [5] [nM]	Kd [6] [nM]	solubility kinetic [7] [µM]	Kd [8] [nM]	Kd [9] [nM]	EC50 [10] [nM]	Kd [11] [nM]
C=CCn1cc(C(=O)N(C)C2CCN(c3cc(OC)ncn3)CC2)c2cc[nH]c2c1=O	130	8500	> 20000	2800							
C=CCn1cc(C(=O)N(C)C2CCN(c3cc(-c4ccccc4C)ncn3)CC2)c2cc[nH]c2c1=O	46	1700	> 20000	2400							
C=CCn1cc(C(=O)N(C)C2CCN(c3cc(-c4ccco4)ncn3)CC2)c2cc[nH]c2c1=O	45	3300	> 20000	2500							
CN1CCC(NC(=O)c2cn(C)c(=O)c3[nH]ccc23)CC1	1100	2400	> 20000	130	> 20000						
CC(C)N1CCC(N(C)C(=O)c2cn(C)c(=O)c3[nH]ccc23)CC1	500	17800	> 20000	8400	19200						
C=CCn1cc(C(=O)N(C)C2CCN([C@@H](C)c3ccccc3)CC2)c2cc(C)[nH]c2c1=O	190	4400	> 20000	11900	> 20000						
C=CCn1cc(C(=O)N(C)C2CCN(c3ccncn3)CC2)c2cc[nH]c2c1=O	240	5000	> 20000	2100							
C=CCn1cc(C(=O)N(C)C2CCN(c3cc(C(F)(F)F)ncn3)CC2)c2cc[nH]c2c1=O	200	11400	> 20000	3400							
C=CCn1cc(C(=O)N(C)C2CCN(c3cc(-c4ccccc4OC)ncn3)CC2)c2cc[nH]c2c1=O	45	2600	> 20000	2600							
CN1CCC(N(C)C(=O)c2cn(C)c(=O)c3[nH]ccc23)CC1	780	> 20000	> 20000	6100	17200						
C=CCn1cc(C(=O)N(C)C2CCN(c3cc(-n4cccn4)ncn3)CC2)c2cc[nH]c2c1=O	59	6900	> 20000	3400							
C=CCn1cc(C(=O)N(C)C2CCN(c3cc(C4CC4)nc(C)n3)CC2)c2cc[nH]c2c1=O	52	3500	> 20000	3300							
CC(c1ccccc1)N1CCC(N(C)C(=O)c2cn(C)c(=O)c3[nH]ccc23)CC1 (racemic)	330	11000	> 20000	3600	6100						
C=CCn1cc(C(=O)N(C)C2CCN(c3cc(C4CC4)ncn3)CC2)c2cc[nH]c2c1=O	83	6100	> 20000	1800							
C=CCn1cc(C(=O)N(C)C2CCN(c3cc(-c4cccc(OC)c4)ncn3)CC2)c2cc[nH]c2c1=O	16	1600	> 20000	1400		2400	122 (≈ 60.8 µg/mL)	1100	620	370	2000
C=CCn1cc(C(=O)N(C)C2CCN(C(C)c3ccccc3)CC2)c2cc[nH]c2c1=O (racemic)	500	> 20000	> 20000	16100	> 20000						
C=CCn1cc(C(=O)N(C)C2CCN(c3cc(-c4ccccc4F)ncn3)CC2)c2cc[nH]c2c1=O	44	1500	> 20000	2500							
C=CCn1cc(C(=O)N(C)C2CCN([C@H](C)c3ccccc3)CC2)c2cc(C)[nH]c2c1=O	200	3500	> 20000	16500	> 20000						
C=CCn1cc(C(=O)N(C)C2CCN(c3cc(C(C)(C)C)ncn3)CC2)c2cc[nH]c2c1=O	55	5700	> 20000	2800							
C=CCn1cc(C(=O)N(C)C2CCN(c3cc(C)nc(C)n3)CC2)c2cc[nH]c2c1=O	93	7600	> 20000	5100							
C=CCn1cc(C(=O)N(C)C2CCN(c3cc(OC)nc(C)n3)CC2)c2cc[nH]c2c1=O	71	5800	> 20000	2700							
